Measurements published in US20250152751A1, “RED-SHIFTED FLUOROPHORES AND METHODS OF USING THE SAME” (GEORGIA STATE UNIVERSITY RESEARCH FOUNDATION, INC., priority 2022, published 2025).

What was measured:
[1] = Solvatochromism: absorption maximum in different solvents; type: physicochemical
[2] = Optical properties of the fluorophores measured in ethanol, compared to ICG; type: physicochemical; settings: for Φ^a (%): compared to ICG
Procedure, shortened: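 The fluorophores were measured in ethanol, alongside a reference dye. Recorded optical properties were absorption maximum, emission maximum, Stokes shift, quantum yield and molar extinction coefficient.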

Structure (SMILES)	λabs (nm) Acetonitrile [1] [nm]	λabs (nm) DMSO [1] [nm]	λabs (nm) Ethanol [1] [nm]	λabs (nm) Methanol [1] [nm]	Stokes Shift (nm) [2] [nm]	λabs (nm) [2] [nm]	λem (nm) [2] [nm]	ϵ (cm^−1 M^−1) [2]	Φ^a (%) [2] [%]
CCN1C(=CC=C2CCCC(C=C(C#N)C(=O)O)=C2Sc2ccncc2)C(C)(C)c2ccccc21 [Compound 77]	790	810	800	795	15	800	815	134,400 cm^−1 M^−1	11.5
CCN1C(=CC=C2CCCC(C=C(C#N)C#N)=C2Cl)C(C)(C)c2cc(Br)ccc21 [Compound 74]	790	800	790	785	19	790	809	152,300 cm^−1 M^−1	11.3
CCN1C(=CC=C2CCCC(C=C(C#N)C(=O)O)=C2N2CCC(CO)CC2)C(C)(C)c2ccccc21 [Compound 80]	660	690	685	675	101	685	786	78,200 cm^−1 M^−1	16.7
CCN1/C(=C/C=C2\CC(C(C)(C)C)CC(/C=C(\C#N)C(=O)O)=C2Sc2ccncc2)C(C)(C)c2cc(Cl)ccc21 (stereo not drawn) [Compound 79]	800	815	805	800	13	805	818	147,300 cm^−1 M^−1	11.3
CCN1C(=CC=C2CCCC(C=C(C#N)C(=O)O)=C2N2CCC(CO)CC2)C(C)(C)c2cc(Br)ccc21 [Compound 82]	640	670	675	665	124	675	794	61,000 cm^−1 M^−1	17.3
